Source: patent US11369565B2, “Amino-pyrimidine skeletal muscle modulators” (Cytokinetics, Inc., priority 2010, dated 2022)

test system: rabbit skeletal myofibrils (approximately 90% fast fibers); test: Activation of fast skeletal myofibrils (PUMA coupled-enzyme ATPase assay at pCa25); type: biochemical; conditions: concentration at which the compound increased the enzymatic activity by 40%; calcium at pCa25; PM12 buffer pH 6.8
Method in brief: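 Detergent-washed rabbit psoas myofibrils tested at calcium giving 25% of maximal rate (pCa25). ATPase activity tracked by pyruvate kinase/lactate dehydrogenase coupling, NADH oxidation read as absorbance at 340 nm, in PM12 buffer (12 mM Pipes, 2 mM MgCl2, 1 mM DTT, pH 6.8).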

Compound	Mean AC1.4
CC(=O)NCc1cnc(-c2cnc(NCC3(c4ncccc4F)CCC3)nc2)s1 [N-({2-[2-({[(3-fluoro-2-pyridyl)cyclobutyl]methyl}amino)pyrimidin-5-yl]-1,3-thiazol-5-yl}methyl)acetamide]	B (B=1-10 uM)
CC(C)(CNC(=O)c1cnc(NCC(C)(C)c2ccc(F)cc2)nc1)c1ccc(F)cc1 [N-[2-(4-fluorophenyl)-2-methylpropyl](2-{[2-(4-fluorophenyl)-2-methylpropyl]amino}pyrimidin-5-yl)carboxamide]	D (D=>20 uM)
O=C(Nc1cnc(NCC2(c3ncccc3F)CCC2)nc1)c1nccs1 [N-[2-(([(3-fluoro(2-pyridyl))cyclobutyl]methyl}amino)pyrimidin-5-yl]-1,3-thiazol-2-ylcarboxamide]	D (D=>20 uM)
CC(=O)Nc1n[nH]c2ccc(-c3cnc(NC(C)(C)c4ncccc4Cl)nc3)cc12 [N-[5-(2-{[1-(3-chloro(2-pyridyl))-isopropyl]amina}pyrimidin-5-yl)-1H-indazol-3-yl]acetamide]	B (B=1-10 uM)
O=C(NC1(c2ccc(F)cc2)CCC1)c1cnc(NC2(c3ccc(F)cc3)CCC2)nc1C(F)(F)F [N-[(4-fluorophenyl)cyclobutyl](2-{[(4-fluorophenyl)cyclobutyl]amino}-4-(trifluoromethyl)pyrimidin-5-yl)carboxamide]	D (D=>20 uM)
CCNC(=O)c1cnc(NCC2(c3ncccc3F)CCC2)nc1 [N-ethyl[2-({[(3-fluoro(2-pyridyl))cyclobutyl]methyl}amino)pyrimidin-5-yl] carboxamide]	D (D=>20 uM)
CC(=O)Nc1ccccc1-c1cnc(NC[C@]2(c3ncccc3F)C[C@H](F)C2)nc1 [N-{2-[2-({[3-fluoro-1-(3-fluoro(2-pyridyl))cyclobutyl]methyl}amino)pyrimidin-5-yl]phenyl}acetamide]	D (D=>20 uM)
CC(C)(C)OC(=O)NCCNC(=O)c1cnc(NCC2(c3ncccc3F)CCC2)nc1 [N-{2-[(tert-butoxy)carbonylamino]ethyl}[2-({[(3-fluoro(2-pyridyl))cyclobutyl]methyl}amino)pyrimidin-5-yl]carboxamide]	D (D=>20 uM)
CC(=O)NCc1cnn(-c2cnc(NC(C)(C)c3ncccc3Cl)nc2)c1 [N-{[1-(2-{[1-(3-chloro(2-pyridyl))-isopropyl]amino}pyrimidin-5-yl)pyrazol-4-yl)]methyl}acetamide]	D (D=>20 uM)
CC(=O)NCc1cnc(-c2cnc(NC(C)(C)c3ncccc3Cl)nc2)s1 [N-{[2-(2-{[1-(3-chloro(2-pyridyl))-isopropyl]amino)}pyrimidin-5-yl)-1,3-thiazol-5-yl]methyl]acetamide]	C (C=10-20 uM)
CC(C)(Nc1ncc(-c2ncc(CNC(=O)c3c[nH]c(O)n3)s2)cn1)c1ncccc1Cl [N-{[2-(2-{[1-(3-chloro(2-pyridyl))-isopropyl]amino}pyrimidin-5-yl)(1,3-thazol-5-yl)]methyl}(2-hydroxyimidazol-4-yl)carboxamide]	B (B=1-10 uM)
CC(C)(O)C(=O)NCc1cnc(-c2cnc(NC(C)(C)c3ncccc3Cl)nc2)s1 [N-{[2-(2-{[1-(3-chloro(2-pyridyl))-isopropyl}amino}pyrimidin-5-yl)(1,3-thiazol-5-yl)]methyl]-2-hydroxy-2-methylpropanamide]	C (C=10-20 uM)
CC(C)(Nc1ncc(-c2ncc(CNC(=O)c3cnc[nH]3)s2)cn1)c1ncccc1F [N-{[2-(2-{[1-(3-fluoro(2-pyridyl))-isopropyl]amino}pyrimidin-5-yl)(1,3-thiazol-5-yl)]methyl}imidazol-5-ylcarboxamide]	D (D=>20 uM)
CC(=O)NCc1cnc(-c2cnc(NC(C)(C)c3ncccc3F)nc2)s1 [N-{[2-(2-{[1-(3-fluoro(2-pyridyl))-isopropyl]amino}pyrimidin-5-yl)-1,3-thiazol-5-yl]methyl}acetamide]	D (D=>20 uM)
CC(C)(Nc1ncc(-c2ncc(CNC(=O)c3cnc(O)[nH]3)s2)cn1)c1ncccc1F [N-{[2-(2-{[1-(3-fluoro(2-pyridyl))-isopropyl}amino}pyrimidin-5-yl)(1,3-thiazol-5-yl)]methyl}(2-hydroxyimidazol-5-yl)carboxamide]	C (C=10-20 uM)
CC(=O)NCc1cccc(-c2cnc(NC(C)(C)c3ncccc3F)nc2)c1 [N-{[3-(2-{[1-(3-fluoro(2-pyridyl))-isopropyl]amino}pyrimidin-5-yl)phenyl]methyl}acetamide]	C (C=10-20 uM)
CC(=O)NCc1ccc(-c2cnc(NC(C)(C)c3ncccc3F)nc2)cc1 [N-{[4-(2-{[1-(3-fluoro(2-pyridyl))-isopropyl}amino}pyrimidin-5-yl)phenyl]methyl}acetamide]	D (D=>20 uM)
CC(C)(Nc1ncc(-n2cc(C(=O)NCCO)cn2)cn1)c1ncccc1Cl [[1-(2-{[1-(3-chloro(2-pyridyl))-isopropyl]amino}pyrimidin-5-yl)pyrazol-4-yl]-N-(2-hydroxyethyl)carboxamide]	D (D=>20 uM)
CC(C)(Nc1nccc(-c2nccs2)n1)c1ncccc1Cl [[1-(3-chloro(2-pyridyl))-isopropyl](4-(1,3-thiazol-2-yl)pyrimidin-2-yl)amine]	D (D=>20 uM)
CC(C)(Nc1ncc(-c2ncno2)cn1)c1ncccc1Cl [[1-(3-chloro(2-pyridyl))-isopropyl](5-(1,2,4-oxadiazol-5-yl)pyrimidin-2-yl)amine]	D (D=>20 uM)

Compound	Mean AC1.4
CC(C)(Nc1ncc(-c2nccs2)cn1)c1ncccc1Cl [[1-(3-chloro(2-pyridyl))-isopropyl](5-(1,3-thiazol-2-yl)pyrimidin-2-yl)amine]	B (B=1-10 uM)
CC(C)(Nc1ncc(-c2cn[nH]c2)cn1)c1ncccc1Cl [[1-(3-chloro(2-pyridyl))-isopropyl](5-pyrazol-4-ylpyrimidin-2-yl)amine]	B (B=1-10 uM)
CC(C)(Nc1ncc(-c2cnc3cc[nH]c3c2)cn1)c1ncccc1Cl [[1-(3-chloro(2-pyridyl))-isopropyl](5-pyrrolo[3,2-b]pyridin-6-ylpyrimidin-2-yl)amine]	A (A=<1 uM)
CC(C)(Nc1ncccn1)c1ncccc1Cl [[1-(3-chloro(2-pyridyl))-isopropyl]pyrimidin-2-ylamine]	D (D=>20 uM)
CN1CCc2nc(NCC(C)(C)c3ccc(F)cc3)ncc2C1 [[2-(4-fluorophenyl)-2-methylpropyl](6-methyl (5,6,7,8-tetrahydropyridino [4,3-d]pyrimidin-2-yl))amine]	D (D=>20 uM)
CC(C)(CNc1ncc2c(n1)CCNC2)c1ccc(F)cc1 [[2-(4-fluorophenyl)-2-methylpropyl]-5,6,7,8-tetrahydropyridino[4,3-d]pyrimidin-2-ylamine]	D (D=>20 uM)
COCCNc1nc(NC[C@]2(c3ncccc3F)C[C@H](F)C2)ncc1-c1ccccc1 [[2-({[3-fluoro-1-(3-fluoro(2-pyridyl))cyclobutyl]methyl}amino-5-phenylpyrimidin-4-yl](2-methoxyethyl)amine]	D (D=>20 uM)
CN(C)c1nc(NC[C@]2(c3ncccc3F)C[C@H](F)C2)ncc1-c1ccccc1 [[2-({[3-fluoro-1-(3-fluoro(2-pyridyl))cyclobutyl]methyl}amino-5-phenylpyrimidin-4-yl]dimethylamine]	D (D=>20 uM)
CN(C(=O)c1cnc(NCC2(c3ncccc3F)CCC2)nc1)c1nccs1 [[2-({[(3-fluoro(2-pyridyl))cyclobutyl)]methyl}amino) pyrimidin-5-yl]-N-methyl-N-(1,3-thiazol-2-yl)carboxamide]	D (D=>20 uM)
Cn1nccc1NC(=O)c1cnc(NCC2(c3ncccc3F)CCC2)nc1 [[2-({[(3-fluoro(2-pyridyl))cyclobutyl]methyl)amino)pyrimidin-5-yl]-N-(1-methylpyrazol-5-yl)carboxamide]	D (D=>20 uM)
O=C(NCCO)c1cnc(NCC2(c3ncccc3F)CCC2)nc1 [[2-({[(3-fluoro(2-pyridyl))cyclobutyl]methyl}amino)pyrimdin-5-yl]-N-(2-hydroxyethyl)carboxamide]	D (D=>20 uM)
O=C(Nc1ccccc1)c1ccnc(NCC2(c3ncccc3F)CCC2)n1 [[2-({[(3-fluoro(2-pyridyl))cyclobutyl]methyl}amino)pyrimidin-4-yl]-N-benzamide]	D (D=>20 uM)
CN(C(=O)c1ccnc(NCC2(c3ncccc3F)CCC2)n1)c1ccccc1 [[2-({[(3-fluoro(2-pyridyl))cyclobutyl]methyl}amino)pyrimidin-4-yl]-N-methyl-N-benzamide]	D (D=>20 uM)
O=C(Nc1nncs1)c1cnc(NCC2(c3ncccc3F)CCC2)nc1 [[2-({[(3-fluoro(2-pyridyl))cyclobutyl]methyl}amino)pyrimidin-5-yl]-N-(1,3,4-thiadiazol-2-yl)carboxamide]	B (B=1-10 uM)
O=C(Nc1nccs1)c1cnc(NCC2(c3ncccc3F)CCC2)nc1 [[2-({[(3-fluoro(2-pyridyl))cyclobutyl]methyl}amino)pyrimidin-5-yl]-N-(1,3-thiazol-2-yl)carboxamide]	B (B=1-10 uM)
O=C(Nc1ccccc1F)c1cnc(NCC2(c3ncccc3F)CCC2)nc1 [[2-({[(3-fluoro(2-pyridyl))cyclobutyl]methyl}amino)pyrimidin-5-yl]-N-(2-fluorophenyl)carboxamide]	D (D=>20 uM)
O=C(Nc1cccc(F)c1)c1cnc(NCC2(c3ncccc3F)CCC2)nc1 [[2-({[(3-fluoro(2-pyridyl))cyclobutyl]methyl}amino)pyrimidin-5-yl]-N-(3-fluorophenyl)carboxamide]	D (D=>20 uM)
Cc1cc(NC(=O)c2cnc(NCC3(c4ncccc4F)CCC3)nc2)[nH]n1 [[2-({[(3-fluoro(2-pyridyl))cyclobutyl]methyl}amino)pyrimidin-5-yl]-N-(3-methylpyrazol-5-yl)carboxamide]	D (D=>20 uM)
O=C(Nc1cccnc1)c1cnc(NCC2(c3ncccc3F)CCC2)nc1 [[2-({[(3-fluoro(2-pyridyl))cyclobutyl]methyl}amino)pyrimidin-5-yl]-N-(3-pyridyl)carboxamide]	C (C=10-20 uM)
